US9782368B2, “Use of N,N-bis-2-mercaptoethyl isophthalamide” (EMERAMED LIMITED, priority 2014, dated 2017)
Read-outs that look alike come from different tables or passages of the source.

What was measured:
[1] = Ascorbate depletion assay, CuSO4-sponsored oxidation, recycling of DHA; details: CuSO4 model
Description: The kinetics of ascorbate oxidation, sponsored by both 1 μM 9,10-PQ and 2 μM copper sulphate (CuSO4), was examined using the ascorbate depletion assay (Kelly et al, Res. Rep. Health Eff. Inst., 163, 3 (2011). 9,10-PQ was employed so that the action of NBMI could be examined in isolation of its chelation properties.
All experiments were performed in triplicate in UV 96 well flat-bottomed plates (Greiner bio-one) at a final volume of 200 μL. Exposures were initiated by the addition of 20 μL of a concentrated stock of ascorbate (2 mM) into each well containing 160 μL of Chelex-100 resin treated water (containing 10% DMSO), plus either 10 μL of water, CuSO4 stock solution at 4 mM or 9,10-PQ stock solution at 2 mM, and 10 μL of NMBI (4 mM and […]).
All solutions were prepared in Chelex-100 resin treated water (containing 10% DMSO). This yielded final concentrations in the wells of […], 2 μM CuSO4, or 1 μM 9,10-PQ and between 10 and 200 μM of NBMI.
Immediately prior to the addition of the ascorbate to each assay well, the plate was pre-incubated for 10 minutes at 37° C. in a plate reader (Spectra Max 190). During the exposure, the plate was maintained at this temperature. After addition of ascorbate, the concentration remaining in each well was monitored every 2 minutes for a period of two hours by measuring the absorbance at 265 nm. The ascorbate concentration was determined with reference to a standard curve, with the rate of ascorbate oxidation determined by performing a linear regression through the initial part of a concentration verses time plot using Microcal Software Limited's OriginLab (version 5.0). This was performed for each of the triplicates and the rate of ascorbate depletion was finally expressed as mean mol s 1×10^−9 depletion of ascorbate±standard deviation.
For the experiments in which the impact of adding NBMI to the ascorbate was measured, CuSO4 and 9,10-PQ depletion assays were examined later in the time course. The plates were ran with 190 μL only for the first 55-60 minutes, after which they were removed from the plate reader and 10 μL of either the NMBI or the known reducing agent, DTT stock solution, or water was added to each well. The plate was then returned to the plate reader and the absorbance at 265 nm monitored for a further 60 minutes.
The immediate increase in the measured ascorbate concentrations was determined and is referred to as the ‘jump’, as a measure of immediate recycling capacity. The sustained ‘increase’ over the remaining 60 minutes of the incubation was also determined.

[2] = test system: cigarette smoke (CS)-induced airway disease; assay type: in vivo, BALB/c mice; details: for weight gained compared to start weight: CS-exposed
Description: The 14 day dose-finding study was therefore followed by a 90 day study using essentially the same apparatus and protocol described in Example 4 above. On this occasion, the 5 treatment groups were as follows: • 1. Daily exposure to clean air (Placebo Group; Gr. 1) • 2. Daily exposure to CS (CS-Exposed Placebo Group; Gr. 2) • 3. Daily exposure to CS; treated with NBMI at a 30 mg/kg dose (NBMI 30 mg/kg Group; Gr. 3) • 4. Daily exposure to CS; treated with NBMI at a 60 mg/kg dose (NBMI 60 mg/kg Group; Gr. 4) • 5. Daily exposure to CS; treated with NBMI at a 150 mg/kg dose (NBMI 150 mg/kg Group; Gr. 5) On Day 91, animals were weighed and anesthetised with pentobarbital sodium (90 mg/kg body weight, i.p.). Mice were tracheotomised with an 18-gauge cannula and mechanically ventilated in a quasi-sinusoidal fashion with a small animal ventilator (flexiVent™, SCIREQ®) at a frequency of 3 Hz and a tidal volume (VT) of 12 ml/kg body weight. A positive end-expiratory pressure of 3 cm H2O was applied. The animal's cardiac output was monitored throughout the respiratory mechanics assessment. Mice were paralysed with pancuronium (0.1 mg/kg body weight, i.p. (local suppliers)) before 4 sigh manoeuvres at 3×VT were performed at the beginning of the experiment to establish stable baseline respiratory mechanics and to ensure a similar volume history before the experiment. Dynamic lung mechanics were measured by applying a sinusoidal standardised breath and analysed using the single compartment model and multiple linear regression, giving respiratory resistance (RRS), elastance (ERS) and compliance (CRS). The measurement of RRS reflects both narrowing of the conducting airways and alterations in the lung. The measurement of CRS and ERS reflects only events in the lung periphery, particularly airway closure leading to lung unit de-recruitment. By contrast, a selective change in CRS is indicative of a more distal site of action. More thorough evaluations of lung mechanics were made using forced oscillation technique (FOT) according to Jonasson et al., Respir. Res., 9, 23 (2008) and Respir. Physiol. Neurobiol., 165, 229 (2009). The parameters obtained from the FOT measurements in this study were: Newtonian resistance (RN), tissue damping (G), which is closely related to tissue resistance and reflects energy dissipation in the lung tissues; and tissue elastance (H), which characterises tissue stiffness and reflects energy storage in the tissues. Dynamic pressure-volume (PV) curves were determined by inflating the lungs to a maximum pressure of 30 cm H2O, allowing passive exhalation using the computer-controlled Flexivent ventilator for measuring volume and pressure. Individual results from each animal were compiled. All PV-measurements were performed in triplicate. Quasi-static PV loops were obtained by a slow stepwise inflation and deflation of the lungs. PV loops were performed for PEEP-levels, 3 cm H2O. The shape factor (k) of the descending limb of the PV loop was calculated by fitting the data to the Salazar-Knowles equation. The value of the parameter k is believed to change characteristically with both fibrosis and emphysema. The quasi-static compliance (Cst) and elastance (Est) and the volume air inspired sufficient to reach 20 cm water were also obtained. Bronchoalveolar lavage (BAL) was carried out essentially as described in Example 4 above, as was flow cytometry analysis of cells from BAL and analysis of inflammatory mediators in BAL and serum. Frozen lung tissue was homogenised together with 1 mL PBS in a 2 mL tube, using a mixer mill (Retch mm400) for 2 minutes at 4° C. Immediately after homogenisation, the tube was centrifuged for 15 minutes (1500 rpm, 4° C.). The supernatant was removed and saved for protein concentration determination using a NanoDrop spectrophotometer (Proteins A280). After analysing the protein content, equal amounts of protein from each sample were saved for the transforming growth factor beta (TGFβ) 1-3 analysis. […]

sustained 'increase' in ascorbate over remaining 60 minutes ([1]; 200 μM added at 60 minutes): 25.45 ± 2.45 µM
SMILES: O=C(NCCS)c1cccc(C(=O)NCCS)c1 [NBMI, N,N-bis-2-mercaptoethyl isophthalamide]
immediate 'jump' in ascorbate concentration ([1]; 200 μM added at 60 minutes): 24.98 ± 5.54 µM | subsequent rate of oxidation after addition ([1]; addition at 10, 20 and 30 minutes): quenched | respiratory function (PV-curves) vs placebo group Gr. 2 ([2]; 30, 60 and 150 mg/kg): did not display significantly changed respiratory function | macrophages in BAL fluid ([2]; 30, 60 and 150 mg/kg, Day 90): did not have significantly lower numbers of macrophages | weight gained compared to start weight ([2]; Day 90, Gr. 3, 30 mg/kg): 1.0 ± 0.4 g | weight gained compared to start weight ([2]; Day 90, Gr. 4, 60 mg/kg): 0.7 ± 0.2 g | weight gained compared to start weight ([2]; Day 90, Gr. 5, 150 mg/kg): 0.6 ± 0.2 g | percentage of T helper (CD4+/CD3+) and T cytotoxic (CD8+/CD3+) lymphocytes in BAL fluid ([2]; FACS, NBMI-treated groups): not significant altered | neutrophils in BAL fluid ([2]; Gr. 4, 60 mg/kg): tendency to a lower number of neutrophils | neutrophils in BAL fluid ([2]; Gr. 5, 150 mg/kg): tendency to a lower number of neutrophils | GM-CSF level in serum vs Gr. 2 ([2]; Gr. 5, 150 mg/kg, p<0.01): lowered | MIP-1β level in serum vs Gr. 2 ([2]; Gr. 5, 150 mg/kg, p<0.05): lowered | T cytotoxic (CD8+/CD3+) lymphocytes in BAL fluid vs Gr. 2 ([2]; NBMI-treated animals): significant decrease | lymphocytes in BAL fluid (tendency) ([2]; all NBMI-treated groups): a lower number of lymphocytes | TGFβ1-3 in lung homogenate vs Gr. 2 ([2]; animals receiving NBMI): did not have significantly changed amount
